The text below walks through data of patent US8916499B2, “Herbicidal compositions comprising 4-amino-3-chloro-5-fluoro-6-(4-chloro-2-fluoro-3-methoxyphenyl) pyridine-2-carboxylic acid or a derivative thereof and a protoporphyrinogen oxidase inhibitor” (Dow AgroSciences LLC, priority 2012, dated 2014).

Assay [1] has as its system IPOHE. Put plainly: Pre-emergence soil-applied weed control, greenhouse (Example IV). Format: in vivo, Ipomoea hederacea (L.) Jacq. The text has this:
(§1) Seeds or nutlets of the desired test plant species were planted in a soil matrix prepared by mixing a loam soil (32 percent silt, 23 percent clay, and 45 percent sand, with a pH of about 6.5 and an organic matter content of about 1.9 percent) and calcareous grit in an 80 to 20 ratio. The soil matrix was contained in plastic pots with a volume of 1 quart and a surface area of 83.6 square centimeters (cm^2).
(§2) Treatments consisted of the benzyl ester of 4-amino-3-chloro-5-fluoro-6-(4-chloro-2-fluoro-3-methoxy-phenyl)pyridine-2-carboxylic acid (compound A) formulated as an SC (suspension concentrate) and various herbicidal components alone and in combination. Forms of compound A were applied on an acid equivalent basis.
(§3) Other herbicidal components were applied on an acid equivalent or active ingredient basis and included the protoporphyrinogen oxidase (PPO)-inhibiting herbicides, flumioxazin formulated as Payload® and oxadiazon formulated as Ronstar® 50W.
(§4) Treatment requirements were calculated based upon the rates being tested, the concentration of active ingredient or acid equivalent in the formulation, and a 12 mL application volume at a rate of 187 L/ha.
(§5) For treatments comprised of formulated compounds, measured amounts of compounds were placed individually in 25 mL glass vials and diluted in a volume of 1.25% (v/v) Agri-Dex® crop oil concentrate (COC) to obtain 12× stock solutions. […] Application solutions were prepared by adding an appropriate amount of each stock solution (e.g., 1 mL) and diluted to the appropriate final concentrations with the addition of 10 mL of an aqueous mixture of 1.25% (v/v) COC so that the final spray solutions contained 1.25% (v/v) COC.
(§6) All stock solutions and applications solutions were visually inspected for compound compatibility prior to application. Spray solutions were applied to the soil with an overhead Mandel track sprayer equipped with a 8002E nozzles calibrated to deliver 187 L/ha over an application area of 0.503 m^2 at a spray height of 18 inches (46 cm) above average pot height. Control pots were sprayed in the same manner with the solvent blank.
(§7) The treated and control pots were placed in a greenhouse and top watered as needed. When required to ensure good germination and healthy plants, a fungicide treatment and/or other chemical or physical treatment was applied. The pots were maintained in a greenhouse with an approximate 14 hr photoperiod which was maintained at about 29° C. during the day and 26° C. during the night. Nutrients (Peters® Excel 15-5-15 5-Ca 2-Mg) were applied in the irrigation solution as needed and water was added on a regular basis. Supplemental lighting was provided with overhead metal halide 1000-Watt lamps as necessary. After approximately 4 weeks, the condition of the test plants as compared with that of the untreated plants was determined visually and scored on a scale of 0 to 100 percent where 0 corresponds to no injury or growth inhibition and 100 corresponds to complete kill.
(§8) Colby's equation was used to determine the herbicidal effects expected from the mixtures (Colby, S. R. 1967. Calculation of the synergistic and antagonistic response of herbicide combinations. Weeds 15:20-22.).
(§9) The following equation was used to calculate the expected activity of mixtures containing two active ingredients, A and B: Expected=A+B−(A×B/100)

In assay [2] the test system is SETVI. Described as above. Format: in vivo, Setaria viridis (L.) Beauv. To be noted: 105 g ai/ha alone.
From the text: as §1, §2, §3, §4
For treatments comprised of formulated compounds, measured amounts of compounds were placed individually in 25 mL glass vials and diluted in a volume of 1.25% (v/v) Agri-Dex® crop oil concentrate (COC) to obtain 12× stock solutions. […] Application solutions were prepared by adding an appropriate amount of each stock solution (e.g., 1 mL) and diluted to the appropriate final concentrations with the addition of 10 mL of an aqueous mixture of 1.25% (v/v) COC so that the final spray solutions contained 1.25% (v/v) COC. […]
The treated and control pots were placed in a greenhouse and top watered as needed. […] After approximately 4 weeks, the condition of the test plants as compared with that of the untreated plants was determined visually and scored on a scale of 0 to 100 percent where 0 corresponds to no injury or growth inhibition and 100 corresponds to complete kill. […]

In assay [3] the test system is XANST. Described as above. Format: in vivo, Xanthium strumarium L.
From the text: as §1, §2, §3, §4, §5, §6
as §7, with “Nutrients (Peters® Excel 15-5-15 5-Ca 2-Mg) were applied in the irrigation solution as needed and water was added on a regular basis. Supplemental lighting was provided with overhead metal halide 1000-Watt lamps as necessary.” left out, “kill. […]” for “kill.”

Assay [4] has as its system SCPMA. In words: In-water applied weed control, transplanted paddy rice, greenhouse (Example II). Format: in vivo. To be noted: Bifenox (Fox ®) 180 g ai/ha alone.
The test system of assay [5] is ECHOR. The assay is described as above. Format: in vivo, Echinochloa oryzoides (Ard.) Fritsch. As to conditions: Bifenox (technical) 720 g ai/ha alone.
For assay [6], the system named is PAPRH. Put plainly: Postemergence foliar herbicidal activity of mixtures in cereal crops, greenhouse (Example III). Format: in vivo, Papaver rhoeas L. To be noted: foliar-applied. As for the experimental part:
Seeds of the desired test plant species were planted in Sun Gro MetroMix® 306 planting mixture, which typically has a pH of 6.0 to 6.8 and an organic matter content of about 30 percent, in plastic pots with a surface area of 103.2 square centimeters (cm^2). When required to ensure good germination and healthy plants, a fungicide treatment and/or other chemical or physical treatment was applied. The plants were grown for 7-36 days in a greenhouse with an approximate 14 hour photoperiod which was maintained at about 18° C. during the day and about 17° C. during the night. Nutrients and water were added on a regular basis and supplemental lighting was provided with overhead metal halide 1000-Watt lamps as necessary. The plants were employed for testing when they reached the second or third true leaf stage.
Treatments consisted of the benzyl ester of 4-amino-3-chloro-5-fluoro-6-(4-chloro-2-fluoro-3-methoxy-phenyl)pyridine-2-carboxylic acid (Compound A), formulated as an SC, a second cereal herbicide alone and then both in combination.
Other herbicidal components were applied on an active ingredient basis and included PSII-inhibiting herbicides.
Measured aliquots of benzyl ester of 4-amino-3-chloro-5-fluoro-6-(4-chloro-2-fluoro-3-methoxy-phenyl)pyridine-2-carboxylic acid (Compound A) were placed in 25 milliliter (mL) glass vials and diluted in a volume of 1.25% (v/v) Agri-Dex® crop oil concentrate to obtain stock solutions. Compound requirements are based upon a 12 mL application volume at a rate of 187 liters per hectare (L/ha). Spray solutions of the second cereal herbicide and experimental compound mixtures were prepared by adding the stock solutions to the appropriate amount of dilution solution to form 12 mL spray solution with active ingredients in two- and three-way combinations. Formulated compounds were applied to the plant material with an overhead Mandel track sprayer equipped with an 8002E nozzle calibrated to deliver 187 L/ha over an application area of 0.503 square meters (m^2) at a spray height of 18 inches (46 cm) above average plant canopy. Control plants were sprayed in the same manner with the solvent blank.
The treated plants and control plants were placed in a greenhouse as described above and watered by sub-irrigation to prevent wash-off of the test compounds. After 20-22 days, the condition of the test plants as compared with that of the control plants was determined visually and scored on a scale of 0 to 100 percent where 0 corresponds to no injury and 100 corresponds to complete kill.
as §8, §9

Assay [7] has as its system IPOHE. Put plainly: Postemergence foliar-applied weed control, direct seeded rice, greenhouse (Example I). Format: in vivo, Ipomoea hederacea Jacq. As to conditions: g ae/ha Compound A Benzyl Ester+g ai/ha bifenox (Fox ®): r11 16+0, r12 32+0, r13 0+180, r14 16+180, r15 32+180.
Assay [8] relates to CYPIR. Described as above. Format: in vivo, Cyperus iria L.

As for `C#CCN1C(=O)COc2cc(F)c(N3C(=O)C4=C(CCCC4)C3=O)cc21` [Fumioxazin], the “Visual Weed Control (%) - 28 DAA IPOHE Obs” value in assay [1] (105 g ai/ha alone) was determined as 70%; in assay [1] (210 g ai/ha alone) it was 70%; in assay [1] (420 g ai/ha alone), 90%. In addition, in assay [2], the “Visual Weed Control (%) - 28 DAA SETVI Obs” value came to 73%. The entries for the “Visual Weed Control (%) - 29 DAA XANST Obs” value in assay [3] (105 g ai/ha alone) and in assay [3] (210 g ai/ha alone) were 18% and 48%, respectively.

With `COC(=O)c1cc(Oc2ccc(Cl)cc2Cl)ccc1[N+](=O)[O-]` [Bifenox, methyl 5-(2,4-dichlorophenoxy)-2-nitrobenzoate], the “Visual Weed Control (%) - 21 DAA SCPMA Obs” value in assay [4] was found to be 40%. The “Visual Weed Control (%) - 21 DAA ECHOR Obs” value in assay [5] is 40%. In addition, the “Visual Weed Control (%) - 21 DAA PAPRH Obs” value in assay [6] (180 g ai/ha alone) is 5%; in assay [6] (360 g ai/ha alone), 8%; in assay [6] (780 g ai/ha alone) it was 8%. Moreover, the “Visual Weed Control (%) - 21 DAA IPOHE Obs” value in assay [7] turned out to be 55%. The “Visual Weed Control (%) - 21 DAA CYPIR Obs” value in assay [8] (g ae/ha Compound A Benzyl Ester+g ai/ha bifenox (Fox ®): r17 8+0, r18 0+180, r19 0+360, r20 0+720, r21 8+180, r22 8+360, r23 8+720) was 0%. The “Visual Weed Control (%) - 22 DAA CYPIR Obs” value in assay [8] (g ae/ha Compound A Benzyl Ester+g ai/ha bifenox (technical): r23 8+0, r24 16+0, r25 0+180, r26 0+720, r27 8+180, r28 16+180, r29 8+720, r30 16+720) is recorded as 0%.
